# Experimental data taken from patent EP0714662A1, “ANTIALLERGIC AGENT” (MEIJI MILK PRODUCTS COMPANY LIMITED, priority 1993, dated 1995).
# Ends that are not written are not given here.
# Assays:
# [1] = tested on: basophils artificially sensitized in a passive manner with serum IgEs from patients suffering from rhinallergosis caused by mites; experiment: Passive histamine release (inhibition) test with passively sensitized basophils; format: cell-based, human
# Procedure: To 20 ml of heparinized venous blood, 5 ml of a 4.5% dextran solution were added and the mixture was allowed to stand for 30 to 60 minutes at room temperature. The upper leukocyte layer was extracted and subjected to a repetitive centrifugal operation. The leukocytes were then washed with PBS. To the leuokocytes in a precipitated fraction, 20 ml of a lactate buffer (pH 3.9, 4°C) were added and thoroughly mixed. After cooling the mixture on ice for 2 to 5 minutes, the pH was returned to neutral by adding PBS (25 ml). By this operation, IgEs on basophils were released. The leukocytes were washed well with PBS and suspended in 0.5% human albumin/PBS. 100 µl of cell suspension (approximately 2 x 10⁵ cells/well) were added to a V-bottom 96-well plate. Fifty µl of a pooled serum of patients suffering from rhinallergosis caused by mites were further added, and reaction was allowed to proceed for 1 hour at 37°C. This procedure caused serum IgEs from the patients suffering from rhinallergosis caused by mites to be bound to IgE receptors. Thus, basophils artificially sensitized in a passive manner with serum IgEs from patients suffering from rhinallergosis caused by mites can be obtained (Pruzansky J.J. et al., J. Immunol., 131; 1949-1953, 1983). The plate was centrifuged to remove 100 µl of a supernatant. 100 µl of a 0.5% human albumin/PBS were added to the residue and centrifuged again. The centrifugal operation was repeated twice, and the cells were then washed. 100 µl of a Der p II peptide (55-63) having a predetermined concentration of PBS were combined with 50 µl of an MBE (10 µg/50 µl) or PBS, and allowed to react for 30 minutes at 37°C. The plate was then centrifuged to collect 100 µl of a supernatant. The amount of histamine was determined using a histamine assay kit manufactured by Eiken Kagaku K.K.
# Essentially, a histamine release test is performed to determine the amount of histamine released when an antigen solution (an allergen solution) is added to a sample of whole blood (fresh blood) from an allergic patient. […]
# [2] = tested on: pooled patients' serum IgE; experiment: Binding inhibition assay: pooled patients' serum IgE to mite body extract (MBE); set-up: species or system human; details: peptide concentration of about 5 µg/ml - 5 mg/ml; pooled serum of 10 patients
# Procedure: A crude mite body extract (MBE) was prepared from a mite, Dermatophagoides pteronyssinus (Der p), by homogenizing Der p mite bodies in 0.15 M NaCl/phosphate buffer (pH 7.3, PBS) using a Teflon homogenizer and centrifugally separating to collect the supernatant. A pooled serum IgE from patients was prepared by blending sera from 10 patients suffering from rhinallergosis caused by mites (RAST values with respect to Dermat ophagoides pteronyssinus: 3 or more). The peptide (Der p II 55-63) was synthesized by a Fmoc method using a peptide synthesizer pssm 8 manufactured by Shimadzu Corporation. The results of the synthesis were confirmed by an amino acid analysis and by an analysis of the primary structure. The MBE was added to each well of a 96-well black plate (Dainippon Seiyaku k.K.) so that the amount of protein contained was 1 µg/well (100 µl). The plate was allowed to stand overnight at 4°C. […] After completion of reaction, 100 µl of a reaction terminating liquid (0.1 M glycin/NaOH, pH 10.3) were added to each well, and absorbance was measured using a fluorospectrophotometer for 96-well plates (Manufactured by Flow). The absorbance in a control which was prepared by adding a PBS solution in place of the peptide was taken as 100%.
# [3] = tested on: serum IgE from 15 patients suffering from mite rhinallergosis; experiment: Enzyme antibody assay: binding of solid phase Der p II overlapping peptides to patients' serum IgE; set-up: species or system human; details: serum from each of 15 patients
# Procedure: The complete primary structure of the amino acid sequence of a Der p II protein was determined after cDNA was isolated therefrom by Chua et al. (Int. Arch. Allergy Appl. Immunol. 91: 118-123, 1990). Based on the amino acid sequence, peptides were synthesized on a solid phase using a multipin system (manufactured by Chiron) and coupling reagents, Fmoc-amino acid and DCC (dicyclohexyl carbodiimide) (Geysen, H.M. et al., Proc. Natl. Acad. Sci. USA. 81:3998-4002, 1984). Sixty-one kinds of peptides were synthesized, the first peptide comprising the first through ninth amino acids of the N-terminal of Der p II, the second peptide comprising the third through eleventh amino acids of the N-terminal, and the third through 61st peptides being prepared in an analogous manner.
# The RAST (radio-allergosorbent test, Pharmacia) values as determined using antigens from two mite species, Dermatophagoides pteronyssinus (Der p) and Dermatophagoides farina (D f), were class 4. Each of the above-mentioned 61 synthesized peptides and 100 µl of each patient's serum were placed in a 96-well plate and reacted overnight at room temperature. Synthesized peptides in a solid phase were washed three times to remove the patient's serum using a washing solution of 0.05% Tween 20/0.15 M NaCl/Tris-HCl (pH 7.5). 100 µl of galactosidase-labelled anti-human IgE antibodies (Pharmacia) were diluted to 40-fold using a 1:9 diluted Block-ace (product of Dainippon Seiyaku K.K.). The diluted solution was added to a 96-well plate, each synthesized solid phase peptide was also added, and reaction, was allowed to proceed overnight at room temperature. The synthesized solid phase peptide was washed with the same washing solution five times. Thereafter, to a 96-well black plate (manufactured by Dainippon Seiyaku K.K.), were added 200 µl of a solution of 0.1 mM 4-methylumbelliferyl-β-D-galactopyranoside in 0.1% bovine serum albumin/0.1 M NaCl/1 mM MgCl₂/0.1% sodium azide/10 mM phosphate buffer (pH 7.0). Subsequently, the synthesized solid phase peptide was added and reacted for 2 hours at 37°C. After completion of reaction, 100 µl of a reaction terminating solution (0.1 M glycin/NaOH, pH 10.3) were added to each well, and absorbance was measured using a fluorospectrophotometer for 96-well plates (Manufactured by Flow). This reaction was studied for each of 15 patients.
sequence,measurement,setting,value
KASIDGLEV [synthesized peptide No. 28],suppression of histamine release caused by MBE,[1]; low peptide concentrations,could not suppress histamine release
same,suppression of histamine release caused by MBE,"[1]; peptide concentration 7.55 mg/ml, MBE 10 µg/50 µl",about 90%
same,histamine release,[1]; substance added alone to passively sensitized basophils,histamine was scarcely released
same,inhibition of binding of pooled patients' serum IgE to MBE,[2],20%
same,binding reactions with IgE antibodies,[3],exhibited binding reactions with IgE antibodies
